Source: ChEMBL document CHEMBL4842316, “Structure-based bioisosterism design of thio-benzoxazepinones as novel necroptosis inhibitors” (Eur J Med Chem, 2021)
Active and inactive are the calls of the source. No cut-off for these calls is given here.

Experiments:
HT-29 [1] = assay: Anti-necroptotic activity in human HT-29 cells assessed as inhibition of hTNFalpha/Z-VAD-fmk (TSZ)-induced necroptosis by measuring increase in cell viability measured after 8 to 10 hrs by celltiter-glo luminescent cell viability assay; format: functional, cell-based
[2] = Cytotoxicity against human HT-29 cells assessed as reduction in cell viability measured after 8 to 10 hrs by celltiter-glo luminescent cell viability assay; format: cell-based; details: time 8-10 hrs
HT-29 [3] = assay: Anti-necroptotic activity in human HT-29 cells assessed as inhibition of Z-VAD-fmk (TSZ)-induced necroptosis by measuring increase in cell viability measured after 8 to 10 hrs by celltiter-glo luminescent cell viability assay; format: functional, cell-based; details: time 8-10 hrs
[4] = molecular target: T1, Receptor-interacting serine/threonine-protein kinase 1 (Homo sapiens) (UniProt Q13546); assay: Inhibition of RIPK1 phosphorylation in Z-VAD-fmk (TSZ)-induced human HT-29 cells at 1 uM measured up to 4 hrs by immunoblotting analysis; format: cell-based; details: time hrs <=4
T1 sequence (whole entry): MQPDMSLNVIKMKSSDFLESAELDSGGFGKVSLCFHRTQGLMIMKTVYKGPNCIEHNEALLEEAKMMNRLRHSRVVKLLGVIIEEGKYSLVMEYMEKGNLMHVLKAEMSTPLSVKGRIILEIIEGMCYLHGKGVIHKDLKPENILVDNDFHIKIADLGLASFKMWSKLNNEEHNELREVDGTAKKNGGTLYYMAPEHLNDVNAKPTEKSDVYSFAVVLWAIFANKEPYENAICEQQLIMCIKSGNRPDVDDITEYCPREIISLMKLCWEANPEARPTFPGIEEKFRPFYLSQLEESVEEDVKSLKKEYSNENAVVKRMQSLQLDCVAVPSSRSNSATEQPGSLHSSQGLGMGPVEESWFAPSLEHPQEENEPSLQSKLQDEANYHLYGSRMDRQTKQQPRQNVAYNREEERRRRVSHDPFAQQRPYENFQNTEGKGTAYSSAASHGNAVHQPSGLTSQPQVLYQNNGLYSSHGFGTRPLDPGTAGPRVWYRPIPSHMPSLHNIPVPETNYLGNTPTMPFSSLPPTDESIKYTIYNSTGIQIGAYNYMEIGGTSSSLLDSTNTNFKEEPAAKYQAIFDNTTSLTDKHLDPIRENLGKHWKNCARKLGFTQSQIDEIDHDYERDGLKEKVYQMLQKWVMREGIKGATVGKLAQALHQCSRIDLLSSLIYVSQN

[5] = molecular target: Receptor-interacting serine/threonine-protein kinase 3 (Homo sapiens) (UniProt Q9Y572); assay: Inhibition of RIPK3 phosphorylation in Z-VAD-fmk (TSZ)-induced human HT-29 cells at 1 uM measured up to 4 hrs by immunoblotting analysis; format: cell-based; details: time hrs <=4
Sequence of Receptor-interacting serine/threonine-protein kinase 3 (Homo sapiens) (Q9Y572 whole entry, looked up, the tested form may be a part): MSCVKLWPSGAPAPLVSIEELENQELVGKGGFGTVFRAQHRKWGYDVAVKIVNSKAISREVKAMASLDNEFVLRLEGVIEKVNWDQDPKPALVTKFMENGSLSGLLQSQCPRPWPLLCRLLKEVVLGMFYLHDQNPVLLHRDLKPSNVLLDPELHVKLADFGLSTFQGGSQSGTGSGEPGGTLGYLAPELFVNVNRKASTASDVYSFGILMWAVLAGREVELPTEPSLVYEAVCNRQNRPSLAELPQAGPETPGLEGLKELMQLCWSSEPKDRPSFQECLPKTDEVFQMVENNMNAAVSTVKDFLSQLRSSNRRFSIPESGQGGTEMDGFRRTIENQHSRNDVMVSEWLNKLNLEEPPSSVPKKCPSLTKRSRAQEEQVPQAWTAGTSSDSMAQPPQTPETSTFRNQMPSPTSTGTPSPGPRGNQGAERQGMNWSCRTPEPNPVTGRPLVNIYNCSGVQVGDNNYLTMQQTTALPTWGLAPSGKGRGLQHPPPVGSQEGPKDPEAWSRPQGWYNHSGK

[6] = molecular target: T2, Mixed lineage kinase domain-like protein (Homo sapiens) (UniProt Q8NB16); assay: Inhibition of MLKL phosphorylation in Z-VAD-fmk (TSZ)-induced human HT-29 cells at 1 uM measured up to 4 hrs by immunoblotting analysis; format: cell-based; details: time hrs <=4
T2 sequence (whole entry): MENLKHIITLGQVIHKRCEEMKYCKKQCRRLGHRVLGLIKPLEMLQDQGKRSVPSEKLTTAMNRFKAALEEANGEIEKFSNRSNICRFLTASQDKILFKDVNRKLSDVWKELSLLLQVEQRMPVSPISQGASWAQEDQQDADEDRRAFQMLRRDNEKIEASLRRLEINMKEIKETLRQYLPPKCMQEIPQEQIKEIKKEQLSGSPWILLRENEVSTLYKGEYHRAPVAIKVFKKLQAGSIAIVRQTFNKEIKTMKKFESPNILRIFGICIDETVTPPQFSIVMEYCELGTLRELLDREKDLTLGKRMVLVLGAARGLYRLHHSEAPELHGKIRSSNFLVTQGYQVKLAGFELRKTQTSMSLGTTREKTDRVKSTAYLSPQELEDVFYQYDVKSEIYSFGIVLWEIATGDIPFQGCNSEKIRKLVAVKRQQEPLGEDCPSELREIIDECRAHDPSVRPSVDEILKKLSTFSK

[7] = molecular target: T1, Receptor-interacting serine/threonine-protein kinase 1 (Homo sapiens); assay: Inhibition of RIPK1 phosphorylation in Z-VAD-fmk (TSZ)-induced human HT-29 cells measured at 4 hrs by immunoblotting analysis; format: cell-based; details: dose 0.001-1 µM
[8] = molecular target: Receptor-interacting serine/threonine-protein kinase 3 (Homo sapiens) (UniProt Q9Y572); assay: Inhibition of RIPK3 phosphorylation in Z-VAD-fmk (TSZ)-induced human HT-29 cells measured at 4 hrs by immunoblotting analysis; format: cell-based; details: dose 0.001-1 µM
[9] = molecular target: T2, Mixed lineage kinase domain-like protein (Homo sapiens); assay: Inhibition of MLKL phosphorylation in Z-VAD-fmk (TSZ)-induced human HT-29 cells measured at 4 hrs by immunoblotting analysis; format: cell-based; details: dose 0.001-1 µM
[10] = molecular target: T1, Receptor-interacting serine/threonine-protein kinase 1 (Homo sapiens); assay: Inhibition of RIPK1 in Z-VAD-fmk (TSZ)-induced human HT-29 cells assessed as reduction in RIPK1-RIPK3 necrosome formation at 1 uM measured after 6 hrs by Western blot analysis; format: cell-based
[11] = molecular target: Receptor-interacting serine/threonine-protein kinase 3 (Homo sapiens) (UniProt Q9Y572); assay: Inhibition of RIPK3 in Z-VAD-fmk (TSZ)-induced human HT-29 cells assessed as reduction in RIPK1-RIPK3 necrosome formation at 1 uM measured after 6 hrs by Western blot analysis; format: cell-based

Compound	EC50 (HT-29 [1])	CC50 [2]	also measured
CN1C(=S)[C@@H](NC(=O)c2n[nH]c(Cc3ccccc3)n2)COc2ncccc21	> 10 µM	> 50 µM	–
Cc1ccc2c(n1)OC[C@@H](NC(=O)c1n[nH]c(Cc3ccccc3)n1)C(=S)N2C	2.02 µM	> 50 µM	–
[2H]C([2H])([2H])N1C(=S)[C@@H](NC(=O)c2n[nH]c(Cc3ccccc3)n2)COc2ccccc21	0.0074 µM	> 50 µM	–
CN1C(=O)[C@H](NC(=O)c2nnc(Cc3ccccc3)[nH]2)COc2ccccc21	0.279 µM	> 50 µM	–
CN1C(=O)[C@H](NC(=O)c2n[nH]c(Cc3ccccc3)n2)COc2ncccc21	> 10 µM	> 50 µM	–
CN1C(=S)[C@H](NC(=O)c2n[nH]c(Cc3ccccc3)n2)COc2ncccc21	> 10 µM	> 50 µM	–
CCN1C(=S)[C@@H](NC(=O)c2n[nH]c(Cc3ccccc3)n2)COc2ccccc21	1.51 µM	> 50 µM	–
[2H]C([2H])([2H])N1C(=S)[C@H](NC(=O)c2n[nH]c(Cc3ccccc3)n2)COc2ccccc21	0.0763 µM	> 50 µM	–
O=C(N[C@@H]1COc2ccccc2NC1=S)c1n[nH]c(Cc2ccccc2)n1	8.84 µM	> 50 µM	–
CN1C(=S)[C@@H](NC(=O)c2n[nH]c(Cc3ccccc3)n2)COc2ccccc21	0.0028 µM	> 50 µM	Activity (HT-29 [3]): Dose-Dependent Effect; inhibition [4]: Active; inhibition [5]: Active; inhibition [6]: Active; inhibition [7]: Dose-Dependent Effect; inhibition [8]: Dose-Dependent Effect; inhibition [9]: Dose-Dependent Effect; inhibition [10]: Active; inhibition [11]: Active
Cc1ccc2c(n1)OC[C@H](NC(=O)c1n[nH]c(Cc3ccccc3)n1)C(=O)N2C	0.363 µM	> 50 µM	–
CCN1C(=S)[C@H](NC(=O)c2n[nH]c(Cc3ccccc3)n2)COc2ccccc21	6.68 µM	> 50 µM	–
CN1C(=O)[C@@H](NC(=O)c2nnc(Cc3ccccc3)[nH]2)COc2ccccc21 [GSK2982772]	0.0036 µM	> 50 µM	–
CN1C(=O)[C@H](NC(=O)c2n[nH]c(Cc3ccccc3)n2)COc2cccnc21	0.81 µM	> 50 µM	–
CN1C(=S)[C@H](NC(=O)c2n[nH]c(Cc3ccccc3)n2)COc2ccccc21	0.0226 µM	> 50 µM	Activity (HT-29 [3]): Dose-Dependent Effect; inhibition [4]: Active; inhibition [5]: Active; inhibition [6]: Active; inhibition [7]: Dose-Dependent Effect; inhibition [8]: Dose-Dependent Effect; inhibition [9]: Dose-Dependent Effect; inhibition [10]: Active; inhibition [11]: Active
Cc1cnc2c(c1)N(C)C(=S)[C@H](NC(=O)c1n[nH]c(Cc3ccccc3)n1)CO2	3.4 µM	> 50 µM	–
CN1C(=O)[C@@H](NC(=O)c2nnc(Cc3ccccc3)[nH]2)COc2cccnc21 [ECLITASERTIB]	0.0154 µM	> 50 µM	–
CN1C(=O)[C@@H](NC(=O)c2n[nH]c(Cc3ccccc3)n2)COc2ncccc21	> 10 µM	> 50 µM	–
Cc1ccc2c(n1)OC[C@H](NC(=O)c1n[nH]c(Cc3ccccc3)n1)C(=S)N2C	0.122 µM	> 50 µM	–
CN1C(=S)[C@@H](NC(=O)c2n[nH]c(Cc3ccccc3)n2)COc2cccnc21	0.0137 µM	> 50 µM	–
Cc1cnc2c(c1)N(C)C(=O)[C@@H](NC(=O)c1n[nH]c(Cc3ccccc3)n1)CO2	0.243 µM	> 50 µM	–
O=C(N[C@H]1COc2ccccc2NC1=S)c1n[nH]c(Cc2ccccc2)n1	0.736 µM	> 50 µM	–
Cc1cnc2c(c1)N(C)C(=S)[C@@H](NC(=O)c1n[nH]c(Cc3ccccc3)n1)CO2	0.144 µM	> 50 µM	–
Cc1ccc2c(n1)OC[C@@H](NC(=O)c1n[nH]c(Cc3ccccc3)n1)C(=O)N2C	6.5 µM	> 50 µM	–
Cc1cnc2c(c1)N(C)C(=O)[C@H](NC(=O)c1n[nH]c(Cc3ccccc3)n1)CO2	> 10 µM	> 50 µM	–
CN1C(=S)[C@H](NC(=O)c2n[nH]c(Cc3ccccc3)n2)COc2cccnc21	0.0186 µM	> 50 µM	–
